As a reminder, the IC50 is the concentration that inhibits the measured activity by half.

For this assay, the target named is human adenosine A2b receptor (Homo sapiens (Human), UniProt P29275). Nature of the assay: Cellular in vitro reporter gene test for A2b receptor activity (CHO-K1, CRE-luciferase, NECA stimulation). Particulars: recombinant CHO-K1 cell line, CRE-luciferase reporter, antagonism of EC50 concentration of NECA; in some cases means of several determinations, rounded to two significant figures; read-out: A2b receptor IC50. It counts as cell-based. The essentials:
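CHO-K1 cells with CRE-driven luciferase; antagonists co-incubated with NECA at its EC50, determined in a pre-experiment on each test day. Luciferase read by luminescence 3 h after NECA addition.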
(In a reporter assay the amount or activity of a reporter protein is the signal.)

human adenosine A2b receptor, sequence (P29275 whole entry): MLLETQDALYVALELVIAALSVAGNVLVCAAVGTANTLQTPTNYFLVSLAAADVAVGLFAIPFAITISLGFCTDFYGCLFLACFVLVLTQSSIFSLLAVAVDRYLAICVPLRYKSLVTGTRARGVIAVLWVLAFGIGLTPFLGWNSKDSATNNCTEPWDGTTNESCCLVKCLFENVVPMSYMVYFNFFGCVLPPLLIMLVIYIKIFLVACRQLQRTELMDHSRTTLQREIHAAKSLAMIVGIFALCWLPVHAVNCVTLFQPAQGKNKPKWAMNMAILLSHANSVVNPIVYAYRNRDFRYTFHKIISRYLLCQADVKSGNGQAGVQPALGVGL

Consider `Cc1c(CN2CCNC2=S)sc2c1c(=O)n(CC(F)(F)F)c(=O)n2C` [Example 159, 1,5-Dimethyl-6-[(2-thioxoimidazolidin-1-yl)methyl]-3-(2,22-trifluoroethyl)thieno[2,3-d]pyrimidine-2,4(1H,3H)-dione], for which the IC50 was 14 nM.

With `Cc1c(CN2CCNC2=S)sc2c1c(=O)n(CC(F)F)c(=O)n2CCC(F)(F)F` [Example 160, 3-(2,2-Difluoroethyl)-5-methyl-6-[(2-thioxoimidazolidin-1-yl)methyl]-1-(3,3,3-trifluoropropyl)thieno[2,3-d]pyrimidine-2,4(1H,3H)-dione], the IC50 worked out at 2.9 nM.

For the compound `CCOCCn1c(=O)n(CC(F)F)c(=O)c2c(C)c(CN3CCNC3=S)sc21` [Example 161, 3-(2,2-Difluoroethyl)-1-(2-ethoxyethyl)-5-methyl-6-[(2-thioxoimidazolidin-1-yl)methyl]thieno[2,3-d]pyrimidine-2,4(1H,3H)-dione], the half-maximal inhibitory concentration (IC50) was determined as 8.5 nM.

Consider `Cc1c(CN2CCNC2=S)sc2c1c(=O)n(CC(F)F)c(=O)n2CC1COC1` [Example 165, 3-(2,2-Difluoroethyl)-5-methyl-1-(oxetan-3-ylmethyl)-6-[(2-thioxoimidazolidin-1-yl)methyl]thieno[2,3-d]pyrimidine-2,4(1H,3H)-dione], for which the half-maximal inhibitory concentration (IC50) was 6.5 nM.

Turning to `Cc1c(CN2CCNC2=S)sc2c1c(=O)n(CC(F)F)c(=O)n2C` [Example 166, 3-(2,2-Difluoroethyl)-1,5-dimethyl-6-[(2-thioxoimidazolidin-1-yl)methyl]thieno[2,3-d]pyrimidine-2,4(1H,3H)-dione], the IC50 came out at 13 nM.

`COCCn1c(=O)c2c(C)c(CN3CCNC3=S)sc2n(CCC(F)(F)F)c1=O` [Example 167, 3-(2-Methoxyethyl)-5-methyl-6-[(2-thioxoimidazolidin-1-yl)methyl]-1-(3,3,3-trifluoropropyl)thieno[2,3-d]pyrimidine-2,4(1H,3H)-dione]: the IC50 was 1.2 nM.

Turning to `COCCn1c(=O)c2c(C)c(CN3CCNC3=S)sc2n(CCOC)c1=O` [Example 168, 1,3-Bis(2-methoxyethyl)-5-methyl-6-[(2-thioxoimidazolidin-1-yl)methyl]thieno[2,3-d]pyrimidine-2,4(1H,3H)-dione], the IC50 was 15 nM.

For `CCOCCn1c(=O)n(CCOC)c(=O)c2c(C)c(CN3CCNC3=S)sc21` [Example 169, 1-(2-Ethoxyethyl)-3-(2-methoxyethyl)-5-methyl-6-[(2-thioxoimidazolidin-1-yl)methyl]thieno[2,3-d]pyrimidine-2,4(1H,3H)-dione], the half-inhibitory concentration (IC50) was found to be 36 nM.

Take `COC(C)(C)Cn1c(=O)c2c(C)c(CN3CCNC3=S)sc2n(CCC(F)(F)F)c1=O` [Example 170, 3-(2-Methoxy-2-methylpropyl)-5-methyl-6-[(2-thioxoimidazolidin-1-yl)methyl]-1-(3,3,3-trifluoropropyl)thieno[2,3-d]pyrimidine-2,4(1H,3H)-dione]: the 50% inhibitory concentration (IC50) is 4.4 nM.

`COC(C)(C)Cn1c(=O)c2c(C)c(CN3CCNC3=S)sc2n(CCCF)c1=O` [Example 171, 1-(3-Fluoropropyl)-3-(2-methoxy-2-methylpropyl)-5-methyl-6-[(2-thioxoimidazolidin-1-yl)methyl]thieno[2,3-d]pyrimidine-2,4(1H,3H)-dione]: the IC50 came to 13 nM.

Regarding `COCCn1c(=O)n(CC(C)(C)OC)c(=O)c2c(C)c(CN3CCNC3=S)sc21` [Example 172, 1-(2-Methoxyethyl)-3-(2-methoxy-2-methylpropyl)-5-methyl-6-[(2-thioxoimidazolidin-1-yl)methyl]thieno[2,3-d]pyrimidine-2,4(1H,3H)-dione], the IC50 is 7.3 nM.

In the case of `Cc1c(CN2CCN(C)C2=S)sc2c1c(=O)n(CC(F)(F)F)c(=O)n2CCCF` [Example 173, 1-(3-Fluoropropyl)-5-methyl-6-[(3-methyl-2-thioxoimidazolidin-1-yl)methyl]-3-(2,2,2-trifluoroethyl)thieno[2,3-d]pyrimidine-2,4(1H,3H)-dione], the IC50 came out at 73 nM.

Regarding `CCn1c(=O)c2c(C)c(CN3CCN(C(C)C)C3=S)sc2n(CCOC)c1=O` [Example 174, 3-Ethyl-6-[(3-isopropyl-2-thioxoimidazolidin-1-yl)methyl]-1-(2-methoxyethyl)-5-methylthieno[2,3-d]pyrimidine-2,4(1H,3H)-dione], the half-inhibitory concentration (IC50) is 49 nM.

Regarding `COCCn1c(=O)n(CCc2ccccc2)c(=O)c2c(C)c(CN3CCNC3=O)sc21` [Example 176, 1-(2-Methoxyethyl)-5-methyl-6-[(2-oxoimidazolidin-1-yl)methyl]-3-(2-phenylethyl)thieno[2,3-d]pyrimidine-2,4(1H,3H)-dione], the IC50 was found to be 1.5 nM.

With `CCn1c(=O)c2c(C)c(CN3CCNC3=O)sc2n(CC(F)F)c1=O` [Example 177, 1-(2,2-Difluoroethyl)-3-ethyl-5-methyl-6-[(2-oxoimidazolidin-1-yl)methyl]thieno[2,3-d]pyrimidine-2,4(1H,3H)-dione], the IC50 was found to be 15 nM.

In the case of `CCn1c(=O)c2c(C)c(CN3CCNC3=O)sc2n(CCOC2CC2)c1=O` [Example 178, 1-[2-(Cyclopropyloxy)ethyl]-3-ethyl-5-methyl-6-[(2-oxoimidazolidin-1-yl)methyl]thieno[2,3-d]pyrimidine-2,4(1H,3H)-dione], the IC50 amounted to 21 nM.

For the compound `Cc1c(CN2CCNC2=O)sc2c1c(=O)n(C(C)C)c(=O)n2CCC(F)(F)F` [Example 181, 3-Isopropyl-5-methyl-6-[(2-oxoimidazolidin-1-yl)methyl]-1-(3,3,3-trifluoropropyl)thieno[2,3-d]pyrimidine-2,4(1H,3H)-dione], the half-inhibitory concentration (IC50) was found to be 1.5 nM.

`Cc1c(CN2CCNC2=O)sc2c1c(=O)n(C(C)C)c(=O)n2CCF` [Example 182, 1-(2-Fluoroethyl)-3-isopropyl-5-methyl-6-[(2-oxoimidazolidin-1-yl)methyl]thieno[2,3-d]pyrimidine-2,4(1H,3H)-dione]: the half-maximal inhibitory concentration (IC50) was 9 nM.

With `Cc1c(CN2CCNC2=O)sc2c1c(=O)n(C(C)C)c(=O)n2CC1COC1` [Example 189, 3-Isopropyl-5-methyl-1-(oxetan-3-ylmethyl)-6-[(2-oxoimidazolidin-1-yl)methyl]thieno[2,3-d]pyrimidine-2,4(1H,3H)-dione], the IC50 was determined as 17 nM.

Turning to `Cc1c(CN2CCNC2=O)sc2c1c(=O)n(CC(C)C)c(=O)n2CC(F)F` [Example 191, 1-(2,2-Difluoroethyl)-3-isobutyl-5-methyl-6-[(2-oxoimidazolidin-1-yl)methyl]thieno[2,3-d]pyrimidine-2,4(1H,3H)-dione], the IC50 is 3.3 nM.

Take `Cc1c(CN2CCNC2=O)sc2c1c(=O)n(CC(C)C)c(=O)n2CCCF` [Example 192, 1-(3-Fluoropropyl)-3-isobutyl-5-methyl-6-[(2-oxoimidazolidin-1-yl)methyl]thieno[2,3-d]pyrimidine-2,4(1H,3H)-dione]: the 50% inhibitory concentration (IC50) is 3.2 nM.

As to `CCOCCn1c(=O)n(CC(C)C)c(=O)c2c(C)c(CN3CCNC3=O)sc21` [Example 193, 1-(2-Ethoxyethyl)-3-isobutyl-5-methyl-6-[(2-oxoimidazolidin-1-yl)methyl]thieno[2,3-d]pyrimidine-2,4(1H,3H)-dione], the IC50 turned out to be 25 nM.

As to `Cc1c(CN2CCNC2=O)sc2c1c(=O)n(CC(C)C)c(=O)n2CC1COC1` [Example 199, 3-Isobutyl-5-methyl-1-(oxetan-3-ylmethyl)-6-[(2-oxoimidazolidin-1-yl)methyl]thieno[2,3-d]pyrimidine-2,4(1H,3H)-dione], the IC50 came out at 8.1 nM.

For the compound `Cc1c(CN2CCNC2=O)sc2c1c(=O)n(CC(C)(C)C)c(=O)n2CCC(F)(F)F` [Example 200, 3-(2,2-Dimethylpropyl)-5-methyl-6-[(2-oxoimidazolidin-1-yl)methyl]-1-(3,3,3-trifluoropropyl)thieno[2,3-d]pyrimidine-2,4(1H,3H)-dione], the IC50 amounted to 2.9 nM.

Take `Cc1c(CN2CCNC2=O)sc2c1c(=O)n(CC(C)(C)C)c(=O)n2CCCF` [Example 201, 3-(2,2-Dimethylpropyl)-1-(3-fluoropropyl)-5-methyl-6-[(2-oxoimidazolidin-1-yl)methyl]thieno[2,3-d]pyrimidine-2,4(1H,3H)-dione]: the 50% inhibitory concentration (IC50) amounted to 4.4 nM.

For `COCCn1c(=O)n(CC(C)(C)C)c(=O)c2c(C)c(CN3CCNC3=O)sc21` [Example 202, 3-(2,2-Dimethylpropyl)-1-(2-methoxyethyl)-5-methyl-6-[(2-oxoimidazolidin-1-yl)methyl]thieno[2,3-d]pyrimidine-2,4(1H,3H)-dione], the IC50 turned out to be 7.8 nM.

Take `COCCn1c(=O)n(CC=C(C)C)c(=O)c2c(C)c(CN3CCNC3=O)sc21` [Example 203, 1-(2-Methoxyethyl)-5-methyl-3-(3-methylbut-2-en-1-yl)-6-[(2-oxoimidazolidin-1-yl)methyl]thieno[2,3-d]pyrimidine-2,4(1H,3H)-dione]: the IC50 is 57 nM.

Consider `Cc1c(CN2CCNC2=O)sc2c1c(=O)n(CC(F)(F)F)c(=O)n2CCC(F)(F)F` [Example 204, 5-Methyl-6-[(2-oxoimidazolidin-1-yl)methyl]-3-(2,2,2-trifluoroethyl)-1-(3,3,3-trifluoropropyl)thieno[2,3-d]pyrimidine-2,4(1H,3H)-dione], for which the IC50 amounted to 1.1 nM.

In the case of `CCOCCn1c(=O)n(CC(F)(F)F)c(=O)c2c(C)c(CN3CCNC3=O)sc21` [Example 205, 1-(2-Ethoxyethyl)-5-methyl-6-[(2-oxoimidazolidin-1-yl)methyl]-3-(2,2,2-trifluoroethyl)thieno[2,3-d]pyrimidine-2,4(1H,3H)-dione], the IC50 turned out to be 25 nM.

`Cc1c(CN2CCNC2=O)sc2c1c(=O)n(CC(F)(F)F)c(=O)n2CC1COC1` [Example 212, 5-Methyl-1-(oxetan-3-ylmethyl)-6-[(2-oxoimidazolidin-1-yl)methyl]-3-(2,2,2-trifluoroethyl)thieno[2,3-d]pyrimidine-2,4(1H,3H)-dione]: the IC50 was determined as 17 nM.

In the case of `Cc1c(CN2CCNC2=O)sc2c1c(=O)n(CC(F)(F)F)c(=O)n2C` [Example 213, 1,5-Dimethyl-6-[(2-oxoimidazolidin-1-yl)methyl]-3-(2,2,2-trifluoroethyl)thieno[2,3-d]pyrimidine-2,4(1H,3H)-dione], the IC50 worked out at 7.6 nM.

The values are drawn from patent publication US10428083B2, “Heterocyclylmethyl-thienouracile as antagonists of the adenosine-A2B-receptor” (BAYER PHARMA AKTIENGESELLSCHAFT, priority 2015, dated 2019).
